Measured values from ChEMBL document CHEMBL1156748, “Incorporation of water-solubilizing groups in pyrazolopyrimidine mTOR inhibitors: discovery of highly potent and selective analogs with improved human microsomal stability” (Bioorg Med Chem Lett, 2009).
Calls of active or inactive are those of the source. The rule behind the calls is not given here.

How the values were obtained:
[1] = molecular target: Phosphatidylinositol 4,5-bisphosphate 3-kinase catalytic subunit alpha isoform (Homo sapiens, UniProt P42336); assay: Binding affinity to PI3Kalpha by fluorescence polarization assay
Sequence of Phosphatidylinositol 4,5-bisphosphate 3-kinase catalytic subunit alpha isoform (P42336 whole entry, canonical isoform): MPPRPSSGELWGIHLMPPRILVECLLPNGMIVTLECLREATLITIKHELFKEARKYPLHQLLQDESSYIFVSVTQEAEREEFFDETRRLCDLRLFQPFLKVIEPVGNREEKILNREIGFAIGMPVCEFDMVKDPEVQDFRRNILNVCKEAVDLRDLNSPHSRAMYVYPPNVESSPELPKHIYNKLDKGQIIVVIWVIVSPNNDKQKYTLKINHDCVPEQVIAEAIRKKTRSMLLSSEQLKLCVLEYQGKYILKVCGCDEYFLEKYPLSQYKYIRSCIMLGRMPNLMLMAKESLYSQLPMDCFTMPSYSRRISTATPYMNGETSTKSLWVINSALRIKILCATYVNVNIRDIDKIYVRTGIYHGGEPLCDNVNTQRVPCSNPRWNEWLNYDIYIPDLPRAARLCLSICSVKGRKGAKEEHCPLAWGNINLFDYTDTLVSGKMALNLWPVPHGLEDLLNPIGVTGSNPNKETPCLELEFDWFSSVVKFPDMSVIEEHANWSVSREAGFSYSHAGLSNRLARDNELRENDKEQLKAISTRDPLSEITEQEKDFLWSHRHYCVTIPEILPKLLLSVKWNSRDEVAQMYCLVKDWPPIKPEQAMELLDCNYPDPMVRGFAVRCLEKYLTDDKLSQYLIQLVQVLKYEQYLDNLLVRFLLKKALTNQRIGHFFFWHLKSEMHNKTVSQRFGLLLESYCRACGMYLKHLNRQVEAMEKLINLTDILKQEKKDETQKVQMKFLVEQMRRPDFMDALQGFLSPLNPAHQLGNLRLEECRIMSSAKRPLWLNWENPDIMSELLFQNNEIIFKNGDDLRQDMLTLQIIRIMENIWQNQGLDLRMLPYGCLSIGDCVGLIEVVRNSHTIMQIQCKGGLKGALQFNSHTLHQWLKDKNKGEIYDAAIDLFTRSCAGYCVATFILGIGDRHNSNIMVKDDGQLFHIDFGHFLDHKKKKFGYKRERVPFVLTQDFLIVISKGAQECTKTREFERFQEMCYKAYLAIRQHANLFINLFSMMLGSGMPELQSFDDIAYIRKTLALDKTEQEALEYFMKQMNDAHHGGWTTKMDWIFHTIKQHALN

[2] = Antiproliferative activity against PTEN deficient human MDA468 cells after 3 days by MTS assay; format: functional, cell-based; settings: MDA-MB-468, 72 h
[3] = Metabolic stability in human microsomes assessed as half life; format: ADME, Microsome
LNCaP = assay: Antiproliferative activity against PTEN deficient human LNCAP cells after 3 days by MTS assay; format: functional, cell-based; settings: 72 h
[4] = Selectivity ratio, IC50 for PI3Kalpha to IC50 for human FLAG-tagged mTOR
[5] = molecular target: Serine/threonine-protein kinase mTOR (Homo sapiens, UniProt P42345); assay: Inhibition of human FLAG-tagged mTOR expressed in HEK293 cells after 2 hrs by DELFIA; format: cell-based
[6] = Solubility at pH 3; format: physicochemical; settings: buffer
[7] = Half life in nude mouse at 5 mg/kg, iv; format: ADME, organism-based; design: dose 5 mg/kg, route intravenous; settings: in vivo
[8] = molecular target: Phosphatidylinositol 4,5-bisphosphate 3-kinase catalytic subunit beta isoform (Homo sapiens, UniProt P42338); assay: Inhibition of PI3Kbeta
Sequence of Phosphatidylinositol 4,5-bisphosphate 3-kinase catalytic subunit beta isoform (P42338 whole entry, canonical isoform): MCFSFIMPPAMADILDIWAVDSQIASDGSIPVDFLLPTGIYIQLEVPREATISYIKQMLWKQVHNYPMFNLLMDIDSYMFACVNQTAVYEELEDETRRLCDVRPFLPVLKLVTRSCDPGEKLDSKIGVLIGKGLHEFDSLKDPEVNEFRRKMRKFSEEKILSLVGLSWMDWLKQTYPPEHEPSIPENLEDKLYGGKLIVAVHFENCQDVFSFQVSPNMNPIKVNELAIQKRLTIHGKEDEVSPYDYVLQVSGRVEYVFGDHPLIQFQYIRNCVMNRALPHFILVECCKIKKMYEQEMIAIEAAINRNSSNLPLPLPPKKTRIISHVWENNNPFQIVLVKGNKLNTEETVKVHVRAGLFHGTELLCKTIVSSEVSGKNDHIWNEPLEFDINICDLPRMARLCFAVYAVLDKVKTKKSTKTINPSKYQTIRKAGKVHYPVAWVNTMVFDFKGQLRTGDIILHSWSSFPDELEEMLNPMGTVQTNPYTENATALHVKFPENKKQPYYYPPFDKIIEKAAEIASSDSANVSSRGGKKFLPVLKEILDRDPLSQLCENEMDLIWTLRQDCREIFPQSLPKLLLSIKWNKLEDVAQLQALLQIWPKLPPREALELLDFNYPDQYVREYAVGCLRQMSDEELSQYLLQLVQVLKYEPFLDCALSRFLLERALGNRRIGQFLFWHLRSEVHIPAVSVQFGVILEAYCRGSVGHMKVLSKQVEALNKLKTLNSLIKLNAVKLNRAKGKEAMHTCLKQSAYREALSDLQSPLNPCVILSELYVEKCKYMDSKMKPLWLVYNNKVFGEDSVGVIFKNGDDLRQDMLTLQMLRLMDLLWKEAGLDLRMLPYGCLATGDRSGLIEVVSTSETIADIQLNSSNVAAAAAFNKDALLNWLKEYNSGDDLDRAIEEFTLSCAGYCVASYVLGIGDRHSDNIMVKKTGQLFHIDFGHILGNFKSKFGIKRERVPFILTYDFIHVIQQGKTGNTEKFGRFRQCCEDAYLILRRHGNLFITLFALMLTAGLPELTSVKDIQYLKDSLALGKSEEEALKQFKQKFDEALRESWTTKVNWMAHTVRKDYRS

[9] = Volume of distribution at steady state in nude mouse at 5 mg/kg, iv; format: ADME, organism-based; design: dose 5 mg/kg, route intravenous; settings: in vivo, read-out: Vdss
[10] = Plasma concentration in nude mouse at 25 mg/kg, iv after 8 hrs; format: ADME, organism-based; design: dose 25 mg/kg, route intravenous
MDA-MB-361 [11] = assay: Inhibition of mTORC2 in human MDA-MB-361 cells assessed as phosphorylated AKT S473 level at 25 nM
Mus musculus [12] = assay: Antitumor activity against human MDA-MB-361 cells xenografted in nude mouse assessed as inhibition of tumor growth at 10 to 25 mg/kg, iv administered daily; format: functional, organism-based
[13] = molecular target: Phosphatidylinositol 4,5-bisphosphate 3-kinase catalytic subunit gamma isoform (Homo sapiens, UniProt P48736); assay: Inhibition of PI3Kgamma
Sequence of Phosphatidylinositol 4,5-bisphosphate 3-kinase catalytic subunit gamma isoform (P48736 whole entry, canonical isoform): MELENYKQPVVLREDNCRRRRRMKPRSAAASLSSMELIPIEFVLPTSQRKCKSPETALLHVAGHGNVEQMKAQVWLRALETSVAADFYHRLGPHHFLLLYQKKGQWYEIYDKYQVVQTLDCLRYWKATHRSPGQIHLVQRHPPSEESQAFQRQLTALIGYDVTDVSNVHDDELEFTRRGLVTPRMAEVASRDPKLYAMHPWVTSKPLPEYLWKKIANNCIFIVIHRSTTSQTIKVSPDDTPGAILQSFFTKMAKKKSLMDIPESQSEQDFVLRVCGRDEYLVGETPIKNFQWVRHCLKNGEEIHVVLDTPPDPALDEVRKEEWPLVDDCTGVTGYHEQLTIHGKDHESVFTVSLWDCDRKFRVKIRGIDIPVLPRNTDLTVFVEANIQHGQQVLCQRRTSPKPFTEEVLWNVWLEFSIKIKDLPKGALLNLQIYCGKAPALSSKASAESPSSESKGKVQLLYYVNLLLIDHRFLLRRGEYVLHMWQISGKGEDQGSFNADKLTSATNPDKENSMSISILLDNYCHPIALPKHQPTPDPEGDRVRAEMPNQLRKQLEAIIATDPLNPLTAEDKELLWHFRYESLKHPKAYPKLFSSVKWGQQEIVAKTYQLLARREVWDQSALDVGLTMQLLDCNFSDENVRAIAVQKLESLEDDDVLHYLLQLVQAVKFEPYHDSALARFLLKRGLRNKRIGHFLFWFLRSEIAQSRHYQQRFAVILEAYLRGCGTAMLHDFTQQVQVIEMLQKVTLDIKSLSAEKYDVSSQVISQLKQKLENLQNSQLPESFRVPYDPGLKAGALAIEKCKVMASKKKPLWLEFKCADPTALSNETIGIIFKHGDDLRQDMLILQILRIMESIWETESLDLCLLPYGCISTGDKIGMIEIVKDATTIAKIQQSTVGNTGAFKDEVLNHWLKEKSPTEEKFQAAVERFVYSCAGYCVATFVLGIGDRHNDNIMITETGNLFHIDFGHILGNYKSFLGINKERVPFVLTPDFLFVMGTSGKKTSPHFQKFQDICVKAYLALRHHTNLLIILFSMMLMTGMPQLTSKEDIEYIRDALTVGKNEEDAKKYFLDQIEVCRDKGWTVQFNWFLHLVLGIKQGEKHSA

Mus musculus [14] = assay: Toxicity in nude mouse xenografted with human MDA-MB-361 cells at 10 to 25 mg/kg, iv administered daily; format: organism-based; design: dose 10-25 mg/kg, route intravenous; settings: in vivo
Mus musculus [15] = assay: Inhibition of TORC2 in human MDA-MB-361 cells xenografted nude mouse assessed as p-AKT S473 level at 25 mg/kg, iv; format: functional, organism-based; design: dose 25 mg/kg
[16] = AUC in nude mouse at 5 mg/kg, iv; format: ADME, organism-based; design: dose 5 mg/kg, route intravenous; settings: plasma
[17] = Clearance in nude mouse at 5 mg/kg, iv; format: ADME, organism-based; design: dose 5 mg/kg, route intravenous; settings: in vivo
Mus musculus [18] = assay: Inhibition of TORC1 in human MDA-MB-361 cells xenografted nude mouse assessed as p70-S6K level at 25 mg/kg, iv; format: functional, organism-based; design: dose 25 mg/kg
[19] = Metabolic stability in mouse microsomes assessed as half life; format: ADME, Microsome
MDA-MB-361 [20] = assay: Antitumor activity against human MDA-MB-361 cells xenografted in nude mouse assessed as inhibition of tumor growth at 20 mg/kg, iv every 5 days for 21 days; format: functional, organism-based; design: dose 20 mg/kg

Row | Structure (SMILES) | IC50 [1] [nM] | half-life [3] [min] | IC50 (LNCaP) [nM] | Ratio IC50 [4] | IC50 [5] [nM] | IC50 [2] [nM] | other results
1 | CCn1ncc2c(N3CC4CCC(C3)O4)nc(-c3ccc(NC(=O)Nc4ccc(CN)cc4)cc3)nc21 | 21 | > 30 | < 0.8 | 95 | 0.2 | < 0.8 | –
2 | CCn1ncc2c(N3CC4CCC(C3)O4)nc(-c3ccc(NC(=O)NCCN(C)C)cc3)nc21 | – | – | 350 | 16 | 51 | 1250 | –
3 | CCn1ncc2c(N3CC4CCC(C3)O4)nc(-c3ccc(NC(=O)Nc4ccc(C(=O)NN5CCCC5)cc4)cc3)nc21 | – | > 30 | < 0.7 | 586 | 0.2 | 4 | –
4 | CCn1ncc2c(N3CC4CCC(C3)O4)nc(-c3ccc(NC(=O)Nc4ccc(N5CCOCC5)cc4)cc3)nc21 | – | 6 | < 0.7 | 972 | 0.2 | < 0.7 | –
5 | CCn1ncc2c(N3CC4CCC(C3)O4)nc(-c3ccc(NC(=O)Nc4ccc(N5CCN(C)CC5)nc4)cc3)nc21 | – | > 30 | < 0.7 | 275 | 0.7 | 0.8 | solubility [6]: > 100 µg/mL
6 | CCn1ncc2c(N3CC4CCC(C3)O4)nc(-c3ccc(NC(=O)Nc4ccc(N5CCN(C)CC5)cc4)cc3)nc21 | 51 | > 30 | < 0.7 | 188 | 0.3 | < 0.7 | –
7 | CCn1ncc2c(N3CC4CCC(C3)O4)nc(-c3ccc(NC(=O)Nc4ccc(N(C)CCN(C)C)cc4)cc3)nc21 | 256 | 14 | 0.8 | 295 | 0.9 | 0.8 | –
8 | CCn1ncc2c(N3CC4CCC(C3)O4)nc(-c3ccc(NC(=O)Nc4ccc(NCCN(C)C)cc4)cc3)nc21 | 207 | 14 | 2.8 | 122 | 1.7 | 7 | –
9 | CCNC(=O)Nc1ccc(-c2nc(N3CC4CCC(C3)O4)c3cnn(CCN(C)C)c3n2)cc1 | – | – | 280 | 240 | – | 1800 | –
10 | O=C(Nc1ccc(-c2nc(N3CC4CCC(C3)O4)c3cnn(CC(F)(F)F)c3n2)cc1)Nc1ccc(N2CCNCC2)cc1 | 76 | – | < 0.8 | 318 | 0.2 | 1 | –
11 | CCn1ncc2c(N3CC4CCC(C3)O4)nc(-c3ccc(NC(=O)Nc4ccc(N(C)C)nc4)cc3)nc21 | 282 | – | 6 | 282 | – | 80 | –
12 | CCNC(=O)Nc1ccc(-c2nc(N3CC4CCC(C3)O4)c3cnn(CC)c3n2)cc1 | – | – | 16 | 2230 | 0.6 | 80 | –
13 | CCn1ncc2c(N3CC4CCC(C3)O4)nc(-c3ccc(NC(=O)Nc4ccc(CCO)cc4)cc3)nc21 | – | 10 | < 0.7 | 570 | 0.1 | < 0.7 | –
14 | CCn1ncc2c(N3CC4CCC(C3)O4)nc(-c3ccc(NC(=O)Nc4ccc(CN(C)C)cc4)cc3)nc21 | 263 | 29 | 7 | 239 | 1.1 | 30 | –
15 | CCn1ncc2c(N3CC4CCC(C3)O4)nc(-c3ccc(NC(=O)Nc4ccccc4)cc3)nc21 | 66 | 5 | 0.8 | 212 | – | 12 | –

Now from value to compound, other results behind:

Row | IC50 [1] [nM] | half-life [3] [min] | IC50 (LNCaP) [nM] | Ratio IC50 [4] | IC50 [5] [nM] | Structure (SMILES) | IC50 [2] [nM] | other results
16 | 320 | > 30 | < 0.8 | 451 | 0.7 | CCn1ncc2c(N3CC4CCC(C3)O4)nc(-c3ccc(NC(=O)Nc4ccc(CN5CCN(C)CC5)cc4)cc3)nc21 | 0.8 | –
17 | – | – | < 0.7 | 383 | 1 | CCn1ncc2c(N3CC4CCC(C3)O4)nc(-c3ccc(NC(=O)Nc4ccc(OCCN5CCOCC5)nc4)cc3)nc21 | 0.8 | solubility [6]: > 100 µg/mL
18 | 150 | 24 | < 0.8 | 237 | 0.6 | CN1CCN(c2ccc(NC(=O)Nc3ccc(-c4nc(N5CC6CCC(C5)O6)c5cnn(CC(F)(F)F)c5n4)cc3)cc2)CC1 | 1.5 | half-life [7]: 174 min; IC50 [8]: > 10000 nM; Vd [9]: 1.2 L/kg; concentration at 8 h [10]: 2500 ng/mL; Activity (MDA-MB-361 [11]): Active; Activity (Mus musculus [12]): Active; IC50 [13]: > 10000 nM; Activity (Mus musculus [14]): Non-toxic; Activity (Mus musculus [15]): Active; AUC [16]: 12500 ng·h/mL; clearance [17]: 7 mL/min/kg; Activity (Mus musculus [18]): Active; half-life [19]: > 30 min; Activity (MDA-MB-361 [20]): Active
19 | – | – | 0.8 | 7300 | 0.3 | CCn1ncc2c(N3CC4CCC(C3)O4)nc(-c3ccc(NC(=O)Nc4ccc(N5CCOCC5)nc4)cc3)nc21 | 8 | –
20 | – | 11 | < 0.7 | 335 | 0.1 | CCn1ncc2c(N3CC4CCC(C3)O4)nc(-c3ccc(NC(=O)Nc4ccc(CO)cc4)cc3)nc21 | < 0.7 | –
21 | – | – | 17 | 302 | – | CCn1ncc2c(N3CC4CCC(C3)O4)nc(-c3ccc(NC(=O)Nc4ccc(NC)nc4)cc3)nc21 | 200 | –
22 | – | 23 | < 0.7 | 350 | 0.3 | CCn1ncc2c(N3CC4CCC(C3)O4)nc(-c3ccc(NC(=O)Nc4ccc(C(=O)NN(C)C)cc4)cc3)nc21 | < 0.7 | –
23 | – | – | 50 | 89 | – | CN(C)CCn1ncc2c(N3CC4CCC(C3)O4)nc(-c3ccc(NC(=O)Nc4cccnc4)cc3)nc21 | 220 | –
24 | 148 | 4 | < 0.8 | 1120 | 0.1 | CCn1ncc2c(N3CC4CCC(C3)O4)nc(-c3ccc(NC(=O)Nc4cccnc4)cc3)nc21 | 1.2 | –
25 | – | 5 | 55 | 243 | – | CCn1ncc2c(N3CC4CCC(C3)O4)nc(-c3ccc(NC(=O)Nc4ccc(N5CCCC5)cc4)cc3)nc21 | 120 | –
26 | 136 | > 30 | < 0.7 | 172 | 0.8 | CCn1ncc2c(N3CC4CCC(C3)O4)nc(-c3ccc(NC(=O)Nc4ccc(OCCN(C)C)cc4)cc3)nc21 | 8 | –
